The values that follow come from patent US20240041898A9, “NEUROSTEROIDS AND ENANTIOMERS THEREOF FOR THE PREVENTION AND TREATMENT OF NEURODEGENERATIVE CONDITIONS” (priority 2019, published 2024).

Molecules are shown by their SMILES. “And” between values parts separate entries of the source, which are not always exact repeats. Equal values may be shown once.

Holding throughout (type): cell-based, rat
The test system of experiment [1] is retinal ganglion cells (RGCs). The experiment is described as follows: Ex vivo pressure-loaded whole mounted retinas, NeuN-positive RGC survival. To be noted: 75 mmHg, 1 μM; for RGC Survival (number of NeuN-positive cells), individual areas 1-5: single values. The procedure: (§1) Rat ex vivo Eyecup Preparation—Rat ex vivo eyecups were prepared from 28-32 day old male Sprague-Dawley rats (Charles River Laboratories International Inc., Wilmington, MA). The anterior half of the enucleated eyes was carefully removed to make eyecup preparations. Eyecups were placed at the bottom of a 100 ml glass beaker filled with aCSF (artificial cerebrospinal fluid) containing (in mM): 124 NaCl, 5 KCl, 2 MgSO4, 2 CaCl2, 1.25 NaH2PO4, 22 NaHCO3, and 10 glucose, and incubated at 30° C. for 24 hours using a closed pressure-loading system (FIG. 1C). pH was maintained at 7.35 to 7.40. In the closed-pressure system, a glass beaker with the eyecup was placed at the bottom of an acrylic pressure chamber (2,000 ml volume). A 95% O2-5% CO2 gas mixture was delivered through disposable plastic tubing with an infusion valve and a control dial on the lid of the pressure chamber and an air filter (Cat #SLGP033RS, Merck Millipore, Billerica, MA). The plastic tubing delivering the gas terminated 1 cm above the bottom of the beaker.
(§2) Acutely prepared eyecups were incubated in gassed aCSF for at least 1 h at 30° C. before pressure loading. In some experiments, AlloP (1 μM), ent-AlloP (1 μM), and 3-MA (10 mM) were dissolved in aCSF at the time of experiment and administered by bath perfusion. Eyecup preparations were treated with these drugs for 1 h at 30° C. before pressure loading. For pressure loading, the 95% O2-5% CO2 gas mixture was infused until the pressure reading given by a manometer reached the appropriate level. The pressure was then locked by adjusting the control dial of the effusion valve, and monitored continuously for 24 h at 30° C.
Preparation of whole mounted retinas and immunostaining—The retina was carefully detached from the eye by making cuts along the ora serrata and optic nerve. […] Each quadrant was analyzed using a 1 mm^2 frame, and counted using Image-Pro Plus software. […] RGC counts were analyzed using Image-Pro Plus software. NeuN positive RGCs were determined as the measurement of 5 different areas from three eyes per experimental condition.

The subject of experiment [2] is TUNEL-positive RGCs. The experiment is described as follows: Ex vivo pressure-loaded retinas, TUNEL staining (apoptosis). Conditions: 75 mmHg, 1 μM, single values. Here is the method:
Rat ex vivo Eyecup Preparation—Rat ex vivo eyecups were prepared from 28-32 day old male Sprague-Dawley rats (Charles River Laboratories International Inc., Wilmington, MA). The anterior half of the enucleated eyes was carefully removed to make eyecup preparations. Eyecups were placed at the bottom of a 100 ml glass beaker filled with aCSF (artificial cerebrospinal fluid) containing (in mM): 124 NaCl, 5 KCl, 2 MgSO4, 2 CaCl2, 1.25 NaH2PO4, 22 NaHCO3, and 10 glucose, and incubated at 30° C. for 24 hours using a closed pressure-loading system (FIG. 1C). pH was maintained at 7.35 to 7.40. […]
Acutely prepared eyecups were incubated in gassed aCSF for at least 1 h at 30° C. before pressure loading. […] For pressure loading, the 95% O2-5% CO2 gas mixture was infused until the pressure reading given by a manometer reached the appropriate level. The pressure was then locked by adjusting the control dial of the effusion valve, and monitored continuously for 24 h at 30° C.
Apoptosis—To visualize apoptotic cells, a DeadEnd™ Colorimetric TUNEL (TdT-mediated dUTP Nick-End Labeling) System (Promega, Madison, WI) was used according to the manufacturer's instructions. […] After the length of each retinal section was measured (Image-Pro Plus software), the cells were counted in the whole section length and the number of cells was normalized per 200 μm of retinal section. […]

For experiment [3], the system named is nerve fiber layer (NFL) of retina. Nature of the experiment: Ex vivo pressure-loaded retinas, electron microscopy of autophagosomes (AP) and degenerative autophagic vacuoles (DAV). To be noted: 75 mmHg, 1 μM; for Autophagosomes (AP) in the NFL, Total / Degenerative autophagic vacuoles (DAV) in the NFL, Total: Total of 10 areas of 25 μm2; for Autophagosomes (AP)/25 μm2 in the NFL, individual areas 1-10 / Degenerative autophagic vacuoles (DAV)/25 μm2 in the NFL, individual areas 1-10: single values. Here is the method: as §1, §2
Electron Microscopy—Retinal specimens were trimmed to a smaller size, and ultrathin sections (75 nm) were cut with a diamond knife and suspended over formvar-coated slot grids (1×2 mm opening). The sections were stained with uranyl acetate and lead citrate and viewed in a transmission electron microscope (H-7650, Hitachi High-Technologies Corp., Tokyo, Japan). Numbers of AP and DAV inside NFLs and axons were determined as the sum in 10 different areas of 25 μm^2 each from each sample. The analysis was performed in three eyes per experimental condition.

Experiment [4] deals with LC3-II. The experiment is described as follows: Ex vivo pressure-loaded retinas, Western blot of LC3-II. To be noted: ex vivo; for LC3-II expression (FIG. 2Q), Average / LC3-II expression (FIG. 2Q), individual experiments 1-4: relative units, control = 1.00, normalized to β-actin. Here is the method: as §1, §2
Western Blot Analysis—At the end of each experiment, the posterior segments of the eye were placed on a flat cutting surface and immersed in ice-cold aCSF. With a surgical blade, the retina was carefully and gently detached from the sclera with a fine forceps. The isolated retinas were frozen at −80° C. Retinas were then homogenized in lysis buffer solution (CelLytic MT; Sigma-Aldrich, Inc.) with protease inhibitor cocktail (Sigma-Aldrich, Inc.), prepared according to the manufacturer's instructions. The tissue extracts were ultrasonicated and clarified by centrifugation at 12,000 g for 20 minutes at 4° C. The protein concentrations in supernatants were assayed (Quant-iT assay kit; Invitrogen Corp., Carlsbad, CA). Twenty micrograms of retinal extract were subjected to SDS polyacrylamide gel electrophoretic analysis. The proteins were then transferred to a PVDF. Immunoblots by polyclonal rabbit anti-LC3B antibody (MBL Life Science) or anti-SQSTMl/p62 mouse monoclonal antibody (Abcam) were visualized using WesternBreeze Chemiluminescent Immunodetection system (Invitrogen) with the exposure time to autoradiograph film (MXJB Plus; Kodak, Rochester, NY) adjusted to avoid over- or undersaturation. Precision Plus Protein™ Western Standards (Bio-Rad, Hercules, CA) followed by Precision Protein™ strep Tactin-AP conjugate (Bio-Rad) was used for a molecular marker of LC3. MagicMark™ XP Western Protein Standard (Invitrogen, Carlsbad, CA) was used for a molecular marker of p62. Immunoblot data are normalized to β-actin levels in the same sample.
The density of Western blot bands was quantified using Image-Pro Plus software. Quantification was adjusted to protein expression at 10 mmHg after normalization to the β-actin band at each pressure, and the relative gray-scale value was calculated by densitometric analysis of the obtained bands. At least four independent experiments were performed for each condition, and the results are presented as relative units numerically. Differences in expression levels were evaluated using Wilcoxon Rank-Sum Test, Tukey's or Dunnett's multiple comparison test. Sample numbers were four to five per each experimental condition.

For the molecule `CC(=O)[C@H]1CC[C@H]2[C@@H]3CC[C@H]4C[C@H](O)CC[C@]4(C)[C@H]3CC[C@]12C` [AlloP, allopregnanolone], in experiment [1] (Average of 5), the “RGC Survival (number of NeuN-positive cells), Average” value is 2084.0 per square millimeter. In experiment [1], the “RGC Survival (number of NeuN-positive cells), individual areas 1-5” value is 2220 per square millimeter and 2240 per square millimeter and 1860 per square millimeter and 2260 per square millimeter and 1840 per square millimeter. Further, the “TUNEL Staining (number of TUNEL-positive RGCs), individual areas 1-5” value in experiment [2] is 7 per 200 μm of retina section and 0 per 200 μm of retina section (3×) and 2 per 200 μm of retina section. Also, in experiment [3], the “RGC axon swelling, electron microscopy” value is reported as “protected RGC axons from high pressure”; the “Autophagosomes (AP) in the NFL, Total” value stood at 16; the “Degenerative autophagic vacuoles (DAV) in the NFL, Total” value is on record as 8; the “Autophagosomes (AP)/25 μm2 in the NFL, individual areas 1-10” value was 0 /25 μm2 (2×) and 2 /25 μm2 (6×) and 3 /25 μm2 and 1 /25 μm2. Besides, in experiment [3], the “Degenerative autophagic vacuoles (DAV)/25 μm2 in the NFL, individual areas 1-10” value is 0 /25 μm2 (4×) and 1 /25 μm2 (5×) and 3 /25 μm2. For the same molecule, the “LC3-II expression (FIG. 2Q), Average” value in experiment [4] (Average of 4) amounted to 3.62. The “LC3-II expression (FIG. 2Q), individual experiments 1-4” value in experiment [4] (single values) is 4.31 and 3.47 and 3.34 (2×).

Take `CC(=O)[C@@H]1CC[C@@H]2[C@H]3CC[C@@H]4C[C@@H](O)CC[C@@]4(C)[C@@H]3CC[C@]21C` [ent-AlloP, ent-allopregnanolone]: the “RGC Survival (number of NeuN-positive cells), individual areas 1-5” value in experiment [1] was 2120 per square millimeter and 2280 per square millimeter and 2000 per square millimeter and 1840 per square millimeter and 1860 per square millimeter. Besides, the “TUNEL Staining (number of TUNEL-positive RGCs), individual areas 1-5” value in experiment [2] is 10 per 200 μm of retina section and 1 per 200 μm of retina section and 0 per 200 μm of retina section (2×) and 2 per 200 μm of retina section. Also, in experiment [3], the “RGC axon swelling, electron microscopy” value is reported as “protected RGC axons from high pressure”; the “Autophagosomes (AP) in the NFL, Total” value came to 1; the “Degenerative autophagic vacuoles (DAV) in the NFL, Total” value is reported as 22; the “Autophagosomes (AP)/25 μm2 in the NFL, individual areas 1-10” value was 0 /25 μm2 (9×) and 1 /25 μm2. In experiment [3], the “Degenerative autophagic vacuoles (DAV)/25 μm2 in the NFL, individual areas 1-10” value was 1 /25 μm2 (3×) and 2 /25 μm2 (4×) and 4 /25 μm2 (2×) and 3 /25 μm2. Besides, in experiment [4] (75 mmHg, 1 μM ent-AlloP, 10 mM 3-MA, relative, ent-AlloP + 3-MA = 1.00, Average of 4), the “LC3 expression after 3-MA treatment (FIG. 3F), Average” value was found to be 9.00. For the same molecule, in experiment [4] (75 mmHg, 1 μM ent-AlloP, 10 mM 3-MA, relative, ent-AlloP + 3-MA = 1.00, single values), the “LC3 expression after 3-MA treatment (FIG. 3F), individual experiments 1-4” value is 11.20 and 8.89 and 7.78 and 8.11. Besides, the “LC3-II expression (FIG. 2Q), Average” value in experiment [4] (Average of 4) stood at 5.25. Also, the “LC3-II expression (FIG. 2Q), individual experiments 1-4” value in experiment [4] (single values) is 6.14 and 5.17 and 4.48 and 5.22.
